Source: patent US8030284B2, “Treatment of eye disorders characterized by an elevated intraocular pressure by siRNAs” (Sylentis S.A.U., priority 2004, dated 2011)

Key:
[1] = tested on: normotensive New Zealand rabbit; test: IOP reduction after topical application to the cornea; type: in vivo, New Zealand White rabbit; settings: topical 40 ul to cornea, once daily for four days; control = contralateral eye with vehicle alone; mean of maximum reduction ± SEM
Description: The New Zealand rabbit is the gold standard in experimental platforms designed to study IOP. It is easy to handle and it has a big eye, similar in size to the human organ. In addition, present equipment to measure IOP is not suited to use in animals with small eyes such as mice or rats. Finally, rabbits have an IOP (around 23 mm Hg) that can be brought down to up to 40% its value using local commercial hypotensive medication. Thus, although it is possible to generate rabbit glaucoma models (for example, surgically blocking episclerotic veins or artificially occluding the trabecular meshwork), we have used normotensive rabbits since, in our hands, the pharmacological decrease in IOP can be easily and reproducibly measured.
Normotensive New Zealand White rabbits (males, 2-3 kg) were used. The animals were kept in individual cages with free access to food and water. They were submitted to artificial 12 hours light/darkness cycles, to avoid uncontrolled circadian oscillations of IOP Animal handling and treatment were carried out in accordance with the European Communities Council Directive (86/609/EEC) and the statement of the Association for Research in Vision and Ophthalmology on the Use of Animals in Ophthalmic and Vision Research.
The drugs were typically administered by instilling a small volume (typically 40 μL) on the corneal surface. Contralateral eyes were treated with the vehicle alone and could be used as controls in each experiment […] there is a sympathy phenomenon with the other eye. Multiple experiments in the same animal should be abolished.
IOP measurements were done using a contact tonometer (TONOPEN XL, Mentor, Norwell, Mass.). The TonoPen tonometer is very convenient due to its reliability and small size. Measurements with this instrument were performed delicately applying the tonometer's sensor to the corneal surface. […] All measurements fell within this interval: the mean baseline value of intraocular pressure was 17.0±0.39 mm Hg (n=100). […] In order to avoid distress to the animal, rabbits were topically anesthetized (oxibuprocaine/tetracaine, 0.4%/1%, in a saline solution (1/4 v:v). The solution was applied (10 μl) to the cornea before each measurement of intraocular pressure was made. siRNA or saline was applied topically to the cornea in volumes of 40 μl.
The standard protocol for the siRNA application in rabbit was as follows. Doses of siRNA in saline solution (0.9% w/v) to a final volume of 40 ul, were applied to one eye each day during four consecutive days. The opposite eye was taken as a control and 40 ul of sterile saline (0.9% w/v) were instilled on it, at the same time points. The IOP was measured before each application and at 2 h, 4 h and 6 h following the instillation, during 10 days. Maximum responses were observed between second and third day. To compare the effect of siRNA with other hypotensive compounds, Xalatan (latanoprost 0.005%) and Trustop (Dorzolamide 2%) were assayed and IOP measured in the same conditions.
Those siRNAs selected by the in vitro assays were applied to the animal model, following the protocol previously described. To avoid the effect of IOP fluctuations due to circadian cycles, all the applications were performed at the same time. To determine the siRNA effect, intraocular pressures (IOPs) were measured as previously mentioned.
The data are summarized in table II where values represent the mean of the maximum percentage of IOP reduction after siRNA treatment once normalized and their standard deviations. The decrease in IOP was statistically significant for all the treated targets. […] The siRNAs used in these experiments correspond to the human targets given in FIGS. 2A-2R as follows: • AC2: rabbit sequence homologous to human SEQ. ID. 73 • AC4: rabbit sequence identical to human SEQ. ID. 5 • AC12: rabbit sequence identical to human SEQ. ID. 522 • ADRB1: rabbit sequence identical to human SEQ. ID. 105 • ADRB2: rabbit sequence homologous to human SEQ. ID. […]

AC2 = test: siRNA interference in cell cultures, real time PCR of AC2 transcript; type: cell-based, rabbit; settings: normalized to actin relative to cell control, mean ± SD
Protocol: To check the specificity of the siRNA interference different cell cultures that express the target genes were employed. The cells used for these experiments were: rabbit non-pigmented ciliary epithelium cells NPE, human ciliary epithelium cells OMDC, and human embryonic kidney cells HEK293. The cells are incubated with the corresponding siRNA duplexes, and analysis of the downregulation of expression of the target gene is carried out.
Several examples of techniques well known in the art are as follows: We can perform a single transfection of siRNA duplex using a cationic lipid, such as RNAiFect Transfection Reagent (Qiagen) and Lipofectamine 2000 Reagent (Invitrogen) and assay for silencing 24, 48 and 72 hours after transfection.
A typical transfection protocol can be performed as follows: For one well of a 6-well plate, we transfect using 100 nM as final concentration of siRNA. Following RNAiFect protocol, we seed, the day before transfection, 2-4×10^5 cells per well in 3 ml of an appropriate growth medium, containing DMEM, 10% serum, antibiotics and glutamine, and incubate cells under normal growth conditions (37° C. and 5% CO2). On the day of transfection, cells have to be at 30-50% confluence. We dilute 15 ul of 20 uM siRNA duplex (corresponding to 100 nM final concentration) in 85 ul of Buffer EC-R, to give a final volume of 100 ul, and mix by vortexing. For complex formation, we add 19 ul of RNAiFect Transfection Reagent to the diluted siRNA and mix by pipetting or vortexing. After incubating the samples for 10-15 minutes at room temperature to allow formation of transfection complexes, we add the complexes drop-wise onto the cells with 2.9 ml of fresh growth medium low in antibiotics. After swirling the plates to ensure uniform distribution of the transfection complexes, we incubate the cells under their normal growth conditions. The day after, the complexes are removed and fresh and complete growth medium is added. To monitor gene silencing, cells are collected at 24, 48 and 72 hours post-transfection. The Lipofectamine 2000 Reagent protocol is quite similar. The day before transfection, we seed 2-4×10^5 cells per well in 3 ml of an appropriate growth medium, containing DMEM, 10% serum, antibiotics and glutamine, and incubate cells under normal growth conditions (37° C. and 5% CO2). On the day of transfection, cells have to be at 30-50% confluence. We dilute 12.5 ul of 20 uM siRNA duplex (corresponding to 100 nM final concentration) in 250 ul of DMEM, to give a final volume of 262.5 ul, and mix. Also, 6 ul of Lipofectamine 2000 is diluted in 250 ul of DMEM and mixed. After a 5 minutes incubation at room temperature, the diluted oligomer and the diluted Lipofectamine are combined to allow complex formation during a 20 minutes incubation at room temperature. […]

Molecule | IOP reduction (% of the control) [1] | % of gene transcript level (AC2; 24 h siRNA treatment) | % of gene transcript level (AC2; 48 h siRNA treatment)
CCN[C@H]1C[C@H](C)S(=O)(=O)c2sc(S(N)(=O)=O)cc21 [Dorzolamide, reference compound] | 16.41 ± 2.38 % of the control | – | –
CC(C)OC(=O)CCC/C=C\C[C@@H]1[C@@H](CC[C@@H](O)CCc2ccccc2)[C@H](O)C[C@@H]1O [Latanoprost, latanoprost, reference compound] | 25.46 ± 5.24 % of the control | – | –
AC2 siRNA2: siRNA against AC2: rabbit sequence identical to human SEQ. ID. 54 (CTTCCCTGAGGATCCTCAA; listed as DNA, chemistry not given here; listed as Homo sapiens) | – | 37.97 ± 9.78% | 61.45 ± 9.62%
AC2 siRNA3: siRNA against AC2: rabbit sequence identical to human SEQ. ID. 66 (CTTCACTTGGTTCACTGGA; listed as DNA, chemistry not given here; listed as Homo sapiens) | – | 35.30 ± 9.73% | 51.14 ± 16.49%
ADRB1: siRNA against ADRB1: rabbit sequence identical to human SEQ. ID. 105 (CGACCCCAAGTGCTGCGAC; listed as DNA, chemistry not given here; listed as Homo sapiens) | 28.04 ± 2.98 % of the control | – | –
AGTR2: siRNA against AGTR2: rabbit sequence identical to human SEQ. ID. 774 (GCATCTTATATAGTTCCCC; listed as DNA, chemistry not given here; listed as Homo sapiens) | 11.22 ± 1.53 % of the control | – | –
ATP1A1: siRNA against ATP1A1: rabbit sequence identical to human SEQ. ID. 1399 (CTGGAACTCTGACTCAGAA; listed as DNA, chemistry not given here; listed as Homo sapiens) | 18.13 ± 1.39 % of the control | – | –
ATP1B2: siRNA against ATP1B2: rabbit sequence identical to human SEQ. ID. 1820 (GTTCCACGTGAACTACACA; listed as DNA, chemistry not given here; listed as Homo sapiens) | 16.32 ± 0.91 % of the control | – | –
